From patent publication US4521417A, “Geranylgeranylacetamide compounds having a piperazine ring, salts thereof, pharmaceutical compositions containing said compounds, and method of treating ulcers in mammals” (Nihon Iyakuhin Kogyo Co., Ltd., priority 1982, dated 1985)
Counter-ions that a name gives are not always drawn.

Key:
[1] = system: ulcer; assay: Pharmacological Test 1: pylorus-ligation ulcer in fasted rats, drug intraduodenal, ulcer area after 8 h; format: in vivo, STD Wistar-strain male rats; conditions: Rattus norvegicus, pylorus ligated, n=15 rats, read-out: Percent inhibition (ulcer area)
Method: (§1) Pharmacological tests were conducted on the above-mentioned known anti-ulcerogenic agents, the typical known anti-ulcerogenic compound of formula (A)-1 given hereinabove, and the compounds of formula (I) in accordance with this invention in order to examine their anti-ulcerogenic activities.
(§2) In these pharmacological tests, the numbers attached to the compounds of this invention correspond to the numbers of Production Examples given hereinbelow.
STD Wistar-strain male rats (body weight 170 to 200 g) were caused to fast for 72 hours, and then under ether anesthesia, were incised at the abdomen. The pylorus portion was ligated, and each of the test drugs was intraduodenally administered. The abdomen was closed and sewn. Eight hours later, the abdomen was cut open, and the stomach was taken out. The area of a generated ulcer was measured by a stereoscopic microscope, and the percent inhibition was calculated by comparison from a control to which the drug was not administered.

[2] = system: ulcers generated in the stomach body; assay: Pharmacological Test 2: water-immersion stress ulcer in rats, drug oral, total ulcer length; format: in vivo, STD Wistar-strain male rats; conditions: Rattus norvegicus, 1 hour before water immersion stress at 23±1° C., 18 hours, n=10 rats, read-out: Percent inhibition (total length of ulcers)
Method: as §1, §2
STD Wistar-strain male rats (body weight 170 to 200 g) were caused to fast for 30 hours, and put in a wire cage. They were immersed in a constant temperature water tank kept at 23±1° C. to their emsistermun. Eighteen hours later, the animals were taken out, and incised at the abdomen. The stomach was cut open and examined microscopically. One hour before applying stress to the animals by water immersion, each of the test drugs was orally administered. The total length of ulcers generated in the stomach body was compared with that in a control, and the rate of inhibiting ulcer formation was calculated.

[3] = system: ulcers; assay: Pharmacological Test 3: indomethacine-induced ulcer in rats, drug oral, total ulcer length; format: in vivo, STD Wistar male rats; conditions: Rattus norvegicus, 10 minutes before indomethacine 40 mg/kg s.c., 7 hours, n=10 rats, read-out: Percent inhibition (total length of ulcers)
Method: Pharmacological tests were conducted on the above-mentioned known anti-ulcerogenic agents, the typical known anti-ulcerogenic compound of formula (A)-1 given hereinabove, and the compounds of formula (I) in accordance with this invention in order to examine their anti-ulcerogenic activities. In these pharmacological tests, the numbers attached to the compounds of this invention correspond to the numbers of Production Examples given hereinbelow. STD Wistar male rats (body weight 170 to 200 g) were caused to fast for 24 hours, and indomethacine dissolved in a 5% aqueous solution of sodium hydrogen carbonate was subcutaneously administered in a dose of 40 mg/kg. Seven hours later, the animals were autopsied. Each of the test drugs was administered orally to the stomach 10 minutes before administration of indomethacine. The total length of ulcers formed was compared with that in a control, and the percent inhibition was calculated.

SMILES | inhibition in vivo at 300 mg/kg [1] [%] | inhibition in vivo at 300 mg/kg [2] [%] | inhibition in vivo at 200 mg/kg [3] [%] | inhibition in vivo at 300 mg/kg [3] [%]
C=CCN1CCN(C(=O)CC/C=C(\C)CC/C=C(\C)CC/C=C(\C)CCC=C(C)C)CC1 [Compound (8), N-allyl-N'-geranylgeranylacetyl piperazine] | 70.5 | 68.5 | 72.5 | 
CC(C)=CCC/C(C)=C/CC/C(C)=C/CC/C(C)=C/CCC(=O)N1CCN(CCCBr)CC1 [Compound (11), N-3-bromopropyl-N'-geranylgeranylacetyl piperazine] | 66.8 | 65.3 | 65.6 | 
CCCCCN1CCN(C(=O)CC/C=C(\C)CC/C=C(\C)CC/C=C(\C)CCC=C(C)C)CC1 [Compound (7), N-n-amyl-N'-geranylgeranylacetyl piperazine] | 67.3 | 64.6 | 65.3 | 
CC(C)=CCCC(C)=CCCC(C)=CCCC(=O)OC/C=C(\C)CCC=C(C)C [Gefarnate, geranyl farnesylacetate, reference compound] | 30 | 23.6 |  | 33.1
CC(C)=CCCC(C)=CCCC(C)=CCCC(=O)N1CCN(C)CC1 [Comparative compound of formula (A)-1, reference compound] | 53.3 | 45.6 |  | 51.2
CC(C)=CCC/C(C)=C/CC/C(C)=C/CC/C(C)=C/CCC(=O)N1CCN(Cc2ccccc2)CC1 [Compound (12), N-benzyl-N'-geranylgeranylacetyl piperazine] | 64.9 | 61.1 | 62.1 | 
CC(C)=CCC/C(C)=C/CC/C(C)=C/CC/C(C)=C/CCC(=O)N1CCNCC1 [Compound (1), N-geranylgeranylacetyl piperazine] | 68.2 | 73.8 | 66 | 
CC(C)=CCC/C(C)=C/CC/C(C)=C/CC/C(C)=C/CCC(=O)N1CCN(C)CC1 [Compound (2), N-methyl-N'-geranylgeranylacetyl piperazine] | 74.5 | 76 | 75.3 | 
NC[C@H]1CC[C@H](C(=O)Oc2ccc(CCC(=O)O)cc2)CC1 [Cetraxate hydrochloride, 4-(2-carboxyethyl)-phenyl-trans-4-aminomethylcyclohexanecarboxylate hydrochloride, reference compound] | 27.8 | 31.6 |  | 25.3
CC(C)=CCC/C(C)=C/CC/C(C)=C/CC/C(C)=C/CCC(=O)N1CCN(CC=C(C)C)CC1 [Compound (9), N-prenyl-N'-geranylgeranylacetyl piperazine] | 64 | 59 | 57.2 | 
CCN1CCN(C(=O)CC/C=C(\C)CC/C=C(\C)CC/C=C(\C)CCC=C(C)C)CC1 [Compound (3), N-ethyl-N'-geranylgeranylacetyl piperazine] | 70.1 | 68.7 | 62.1 | 
CCCCN1CCN(C(=O)CC/C=C(\C)CC/C=C(\C)CC/C=C(\C)CCC=C(C)C)CC1 [Compound (6), N-butyl-N'-geranylgeranylacetyl piperazine] | 66.5 | 60.6 | 55.3 | 
CC(C)=CCC/C(C)=C/CC/C(C)=C/CC/C(C)=C/CCC(=O)N1CCN(C(C)C)CC1 [Compound (5), N-isopropyl-N'-geranylgeranylacetyl piperazine] | 66.5 | 64 | 60 | 
CCC1CN(C(=O)CCC=C(C)CCC=C(C)CCC=C(C)CCC=C(C)C)CCN1 (stereo not drawn) [Compound (14)] | 71.5 | 70.2 | 73.5 | 
CC(C)=CCC/C(C)=C/CC/C(C)=C/CC/C(C)=C/CCC(=O)N1CCN(CCCCCl)CC1 [Compound (10), N-4-chlorobutyl-N'-geranylgeranylacetyl piperazine] | 65.3 | 67.3 | 70.2 | 
CC(C)=CCC/C(C)=C/CC/C(C)=C/CC/C(C)=C/CCC(=O)N1C(C)CNCC1C (stereo not drawn) [Compound (15), 2,6-dimethyl-N-geranylgeranylacetyl piperazine] | 80 | 80 | 77.2 | 
CC1(C)[C@@H](OC(=O)CCC(=O)O)CC[C@]2(C)[C@H]3C(=O)C=C4[C@@H]5C[C@@](C)(C(=O)O)CC[C@]5(C)CC[C@@]4(C)[C@]3(C)CC[C@@H]12 [Carbenoxolone sodium, glycyrrhetinic acid hydrogen succinate, disodium salt, reference compound] | 60.5 | 8.6 |  | 63.6
CC(C)=CCCC(C)=CCCC(C)=CCCC(C)=CCCC(=O)N1CCNC(C)C1 (stereo not drawn) [Compound (13), methyl-N-geranylgeranylacetyl piperazine] | 77.1 | 82.8 | 79.2 | 
CCCN1CCN(C(=O)CC/C=C(\C)CC/C=C(\C)CC/C=C(\C)CCC=C(C)C)CC1 [Compound (4), N-n-propyl-N'-geranylgeranylacetyl piperazine] | 64.7 | 69 | 56.5 | 
